Experimental data: publication PMC10372924, “The Jasmine (Jasminum sambac) Genome Provides Insight into the Biosynthesis of Flower Fragrances and Jasmonates” (Genomics, Proteomics & Bioinformatics, 2022)

Target: T1, JsTPS3 (GST-JsTPS3) (Jasminum sambac, UniProt A0A8T9EC85)
T1 construct: gene TPS3; full-length CDS in pGEX-6p-1, N-terminal GST tag kept, E. coli Rosetta (DE3), ~98 kDa with tag
T1 sequence (A0A8T9EC85 1-540): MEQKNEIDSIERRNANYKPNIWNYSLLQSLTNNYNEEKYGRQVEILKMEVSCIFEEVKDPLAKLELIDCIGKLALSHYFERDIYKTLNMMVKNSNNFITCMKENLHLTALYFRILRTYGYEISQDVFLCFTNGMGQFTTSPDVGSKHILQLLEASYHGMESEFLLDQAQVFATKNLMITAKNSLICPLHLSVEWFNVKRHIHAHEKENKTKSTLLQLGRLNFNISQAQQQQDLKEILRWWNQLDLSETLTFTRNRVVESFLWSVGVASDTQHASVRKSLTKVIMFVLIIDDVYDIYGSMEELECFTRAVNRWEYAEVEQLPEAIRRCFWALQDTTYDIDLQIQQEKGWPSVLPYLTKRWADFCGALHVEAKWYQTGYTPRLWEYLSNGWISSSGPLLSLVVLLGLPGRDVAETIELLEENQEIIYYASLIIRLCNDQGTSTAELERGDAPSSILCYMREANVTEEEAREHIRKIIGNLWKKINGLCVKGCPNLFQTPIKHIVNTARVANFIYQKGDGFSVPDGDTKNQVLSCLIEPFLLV
Assay: GC-Orbitrap MS detection of trans-beta-ocimene and beta-ocimene formed
Type: biochemical
Details: 60 uM GPP; 30 mM HEPES pH 7.5, 5 mM DTT, 25 mM MgCl2; 30 °C 1 h, then 45 °C 15 min; 10 or 15 ug enzyme in 1 ml

CC(C)=CCC/C(C)=C/COP(=O)(O)OP(=O)(O)O [GPP, geranyl pyrophosphate]
GC-Orbitrap MS detection of trans-beta-ocimene and beta-ocimene formed: recombinant JsTPS3 protein exerts TPS activity by catalyzing GPP into trans-β-ocimene and β-ocimene
